Several values for one entry are separate records, joined by “and”; a condition that tells them apart may be missing. Identical values can stand only once.
Tests used:
AspH [1] = molecular target: T1, AspH (Homo sapiens, UniProt Q12797); conditions: 0.05 μM AspH, 1.0 μM hFX-CP101-119, 3.0 μM 2OG, ref 21 (supplementary ref 1); cited from earlier work
T1 construct: the tetratricopeptide repeat domain (His6-AspH315-758), was produced and purified as previously reported; made in house
T1 sequence (Q12797 315-758): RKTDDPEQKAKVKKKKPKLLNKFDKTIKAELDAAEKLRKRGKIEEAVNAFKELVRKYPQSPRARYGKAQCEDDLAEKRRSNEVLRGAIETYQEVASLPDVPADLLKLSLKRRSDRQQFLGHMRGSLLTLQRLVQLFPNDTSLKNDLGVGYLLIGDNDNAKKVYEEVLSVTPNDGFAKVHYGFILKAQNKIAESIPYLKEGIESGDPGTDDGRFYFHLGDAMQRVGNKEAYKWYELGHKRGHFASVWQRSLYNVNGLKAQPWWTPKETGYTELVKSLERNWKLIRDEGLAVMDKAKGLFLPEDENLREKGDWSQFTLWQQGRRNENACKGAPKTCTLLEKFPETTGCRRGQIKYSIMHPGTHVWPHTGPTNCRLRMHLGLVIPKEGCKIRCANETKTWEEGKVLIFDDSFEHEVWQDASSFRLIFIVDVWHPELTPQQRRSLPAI

AspH [2] = molecular target: T1, AspH; set-up: method as in PMID 34163896; conditions: hFX-CP101–119 substrate, 330 μM 2OG or 2OG derivative, t = 15 min; cited from earlier work
FIH [3] = molecular target: T2, FIH (Homo sapiens, UniProt Q9NWT6); test: SPE-MS FIH turnover (cosubstrate) assay in the absence of 2OG; format: biochemical; conditions: 330 μM 2OG or 2OG derivative, no 2OG, t = 15 min
T2 sequence (Q9NWT6 whole entry): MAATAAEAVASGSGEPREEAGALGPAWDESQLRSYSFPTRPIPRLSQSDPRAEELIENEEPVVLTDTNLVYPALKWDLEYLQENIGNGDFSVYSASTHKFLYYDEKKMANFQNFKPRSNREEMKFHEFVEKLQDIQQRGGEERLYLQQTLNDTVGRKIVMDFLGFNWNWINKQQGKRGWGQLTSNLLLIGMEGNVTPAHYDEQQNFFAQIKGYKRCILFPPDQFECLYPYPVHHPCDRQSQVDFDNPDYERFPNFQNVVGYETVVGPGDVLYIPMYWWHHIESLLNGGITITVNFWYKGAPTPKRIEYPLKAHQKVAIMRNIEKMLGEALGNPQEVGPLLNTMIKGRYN
Method: The ability of 35 synthetic C3/C4-substituted 2OG derivatives, which were prepared via a reported procedure (Supplementary Fig. 1 and Supplementary Methods)[21], to sustain catalysis by purified recombinant FIH in the absence of 2OG was examined using an assay directly monitoring substrate depletion and product formation (i.e., a +16 Da mass shift) by solid-phase extraction (SPE) coupled to mass spectrometry (SPE-MS)[44],[45]. […] (i.e. CA1–20)[47], were used as FIH substrates to test for potential substrate-dependent differences in terms of cosubstrate analog selectivity.
Assay samples were aspirated under vacuum for 0.6 s and loaded onto a C4 SPE cartridge. After loading, the C4 SPE cartridge was washed with 0.1%v/v aqueous formic acid to remove non-volatile buffer salts (5.5 s, 1.5 mL/min). […] The mass spectrometer was operated using the MassHunter Workstation B.08.00 software (Agilent), the mass spectrometer parameters were: capillary voltage (4000 V), nozzle voltage (1000 V), fragmentor voltage (365 V), gas temperature (280 °C), gas flow (13 L/min), sheath gas temperature (350 °C), sheath gas flow (12 L/min). […] Data were exported into Microsoft Excel and used to calculate the % conversion of the hydroxylation reaction using the equation: % conversion = 100 × (integral product peptide)/(integral substrate peptide+integral product peptide). […] Z′-factors were calculated according to the cited literature using Microsoft Excel (Supplementary Fig. 26)[83].

FIH [4] = molecular target: T2, FIH; test: SPE-MS FIH inhibition assay; format: biochemical; conditions: for IC50 FIH: 5.0 μM HIF-1α788-822, 10 μM 2OG, mean of two runs; as to IC50 FIH: 0.15 µM FIH
Method: FIH inhibition assays were performed as described, using cosubstrate/cofactor stock solutions (L-ascorbic acid, LAA: 50 mM in MQ-grade water; 2-oxoglutarate, 2OG: 10 mM in MQ-grade water; ammonium iron(II) sulfate hexahydrate, FAS, (NH4)2Fe(SO4)2·6H2O: 400 mM in 20 mM HCl diluted to 1 mM in MQ-grade water), which were freshly prepared from commercially-sourced solids (Sigma Aldrich).
Dimethyl sulfoxide (DMSO) solutions of the 2OG derivatives were dry dispensed across 384-well polypropylene assay plates (Greiner) in an approximately threefold and 11-point dilution series (100 μM top concentration; the final DMSO assay concentration was kept constant at 0.5%v/v) using an ECHO 550 acoustic dispenser (Labcyte). […] Each reaction was performed in technical duplicates in adjacent wells of the assay plates; additionally, assays were performed in two independent duplicates on different days using different inhibitor solutions.
The Enzyme Mixture (25 μL/well), containing 0.3 μM His6-FIH in buffer (50 mM Tris, 50 mM NaCl, pH 7.5), was dispensed across the inhibitor-containing 384-well assay plates with a multidrop dispenser (ThermoFischer Scientific) at 20 °C under an ambient atmosphere. The plates were subsequently centrifuged (1000 rpm, 15 s) and incubated for 15 min at 20 °C. The Substrate Mixture (25 μL/well), containing 10.0 μM HIF-1α788–822[37] substrate, 200 μM LAA, 20.0 μM 2OG, and 20.0 μM FAS in buffer (50 mM Tris, 50 mM NaCl, pH 7.5), was added using the multidrop dispenser. The plates were centrifuged (1000 rpm, 15 s) and after incubating for 15 min, the enzyme reaction was stopped by the addition of 10%v/v aqueous formic acid (5 μL/well). The plates were then centrifuged (1000 rpm, 30 s) and analyzed by MS.
MS-analyses were performed using a RapidFire RF 365 high-throughput sampling robot (Agilent) attached to an iFunnel Agilent 6550 accurate-mass quadrupole time-of-flight mass spectrometer operated in the positive ionization mode. Assay samples were aspirated under vacuum for 0.6 s and loaded onto a C4 SPE cartridge. After loading, the C4 SPE cartridge was washed with 0.1%v/v aqueous formic acid to remove non-volatile buffer salts (5.5 s, 1.5 mL/min). […] The mass spectrometer was operated using the MassHunter Workstation B.08.00 software (Agilent), the mass spectrometer parameters were: capillary voltage (4000 V), nozzle voltage (1000 V), fragmentor voltage (365 V), gas temperature (280 °C), gas flow (13 L/min), sheath gas temperature (350 °C), sheath gas flow (12 L/min). The m/z + 2 (for CA1–20) or +3 (for HIF-1α788–822) charge states of the peptide (substrate) and the hydroxylated peptide (product) were used to extract ion chromatogram data, peak areas were integrated using RapidFire Integrator 4.3.0 (Agilent). Data were exported into Microsoft Excel and used to calculate the % conversion of the hydroxylation reaction using the equation: % conversion = 100 × (integral product peptide)/(integral substrate peptide+integral product peptide). […] Z′-factors were calculated according to the cited literature using Microsoft Excel (Supplementary Fig. 26)[83].
SPE-MS FIH inhibition assays were performed as described in the Methods section.
Tris, 50 mM NaCl, pH 7.5, 20 °C). […]

FIH [5] = molecular target: T2, FIH; test: Competition assay in a single reaction vessel, FIH-catalyzed hydroxylation (SPE-MS); format: biochemical
Method: (§1) Mean of three independent runs (n = 3; mean ± SD). […] Cosubstrates: a 20 μM 2OG; b 20 μM 2OG; c 20 μM 1; d 20 μM 12; e 20 μM 12 and 100 μM 2OG; f 100 μM 14. Source data are provided as a Source Data file.
(§2) Mean of three independent runs (n = 3; mean ± SD). […] Source data are provided as a Source Data file.
(§3) Peptide turnover was monitored by SPE-MS using the same instrument configuration (with the exception that the peptides were eluted from the SPE cartridge with 0.1%v/v aqueous formic acid in 80/20 v/v acetonitrile/water) as described above.
(§4) FIH and AspH-catalyzed peptide hydroxylations were analyzed simultaneously using SPE-MS as described in the
(§5) Methods section; competition experiments were performed in the same reaction vessel using equimolar 2OG
(§6) oxygenase and substrate concentrations. […]
(§7) Source data are provided as a Source Data file.
(§8) FIH and AspH-catalyzed peptide hydroxylations were analyzed simultaneously using SPE-
(§9) MS as described in the Methods section; competition experiments were performed in the same reaction vessel
(§10) using equimolar 2OG oxygenase and substrate concentrations. […]
(§11) 2OG, 100 μM 14. Source data are provided as a Source Data file.

AspH [6] = molecular target: T1, AspH; test: Competition assay in a single reaction vessel, AspH-catalyzed hydroxylation (SPE-MS); format: biochemical; conditions: after 4 min
Method: as §1, §2, §3, §4, §5, §6, §7, §8, §9, §10, §11

Structure (SMILES) | FIH activity, %-substrate conversion (FIH [3]; CA1–20 substrate) | FIH activity, %-substrate conversion (FIH [3]; HIF-1α788–822 substrate) | IC50 (FIH [4]; source data of Table 3, single independent replicates, read-out: FIH IC50, independent replicate) | effect on FIH activity (FIH [5]; Fig 4, 13 from 0 to 2.0 mM, 0.5 mM 2OG) | FIH conversion (FIH [5]; Fig 4d, 0.5 mM 13 and 0.5 mM 2OG, after 4 min) | FIH IC50, independent replicate (FIH [4]; source data of Table 3, single independent replicates) | AspH-catalyzed substrate hydroxylation (AspH [6]; Fig 4f, fourfold excess of 13 over 0.5 mM 2OG) | AspH conversion (AspH [6]; Fig 4d, 0.5 mM 13 and 0.5 mM 2OG) | selectivity of AspH over FIH inhibition as judged by IC50-values (FIH [4]) | IC50 FIH (FIH [4]) | IC50 (AspH [1]) | AspH activity, %-substrate conversion (AspH [2]) | IC50 AspH (AspH [1])
CC1(C)c2ccccc2-c2ccc(CC(CC(=O)O)C(=O)C(=O)O)cc21 (stereo not shown) [compound 11, 3-((9,9-dimethyl-9H-fluoren-2-yl)methyl)-2OG] | ^c<1% ^d<1% | ^c<1% ^d<1% | 1830 nM and 1860 nM |  |  |  |  |  |  |  | 4300 nM | <1% | 
CC(C)(CC(=O)C(=O)O)C(=O)O [compound 13, 4,4-dimethyl-2OG] | ~10% | < 1% |  | no effect on FIH activity | ~ 80% | not inhibiting | < 20% | ~ 60% |  |  | ~300 nM | <1% | 
CC(C)CC(CC(=O)C(=O)O)C(=O)O (stereo not shown) [compound 16, 4-isobutyl-2OG] | ~3% | < 1% |  |  |  |  |  |  | ~ 70 fold |  | ~500 nM | <1% | 
O=C(O)C(=O)C12CCC(C(=O)O)(CC1)CC2 [compound 25] | ^c<1% ^d<1% | ^c<1% ^d<1% |  |  |  |  |  |  |  | inactive |  | ~8% | inactive
O=C(O)C(=O)c1cscc1C(=O)O [compound 34] | ^c<1% ^d<1% | ^c<1% ^d<1% |  |  |  |  |  |  |  | inactive |  | <1% | inactive

More lines, main results first:

FIH activity, %-substrate conversion (FIH [3]; CA1–20 substrate) | FIH activity, %-substrate conversion (FIH [3]; HIF-1α788–822 substrate) | IC50 (FIH [4]; source data of Table 3, single independent replicates, read-out: FIH IC50, independent replicate) | effect on FIH activity (FIH [5]; Fig 4, 13 from 0 to 2.0 mM, 0.5 mM 2OG) | FIH conversion (FIH [5]; Fig 4d, 0.5 mM 13 and 0.5 mM 2OG, after 4 min) | FIH IC50, independent replicate (FIH [4]; source data of Table 3, single independent replicates) | AspH-catalyzed substrate hydroxylation (AspH [6]; Fig 4f, fourfold excess of 13 over 0.5 mM 2OG) | AspH conversion (AspH [6]; Fig 4d, 0.5 mM 13 and 0.5 mM 2OG) | selectivity of AspH over FIH inhibition as judged by IC50-values (FIH [4]) | IC50 FIH (FIH [4]) | Structure (SMILES) | IC50 (AspH [1]) | AspH activity, %-substrate conversion (AspH [2]) | IC50 AspH (AspH [1])
^c<1% ^d<1% | ^c<1% ^d<1% |  |  |  |  |  |  |  | inactive | O=C(O)C(=O)c1ccccc1C(=O)O [compound 26] |  | <1% | inactive
^c<1% ^d<1% | ^c<1% ^d<1% |  |  |  |  |  |  |  | inactive | O=C(O)C(=O)c1cccc(C(=O)O)c1 [compound 27] |  | <1% | inactive
^c<1% ^d<1% | ^c<1% ^d<1% |  |  |  |  |  |  |  | inactive | O=C(O)C(=O)c1ccc(C(=O)O)cc1F [compound 29] |  | ~45% | inactive
^c<1% ^d<1% | ^c<1% ^d<1% |  |  |  |  |  |  |  | inactive | O=C(O)C(=O)c1ccc(C(=O)O)c(F)c1 [compound 30] |  | ~8% | inactive
^c<1% ^d<1% | ^c<1% ^d<1% |  |  |  |  |  |  |  | inactive | O=C(O)C(=O)c1ccc(C(=O)O)cc1Br [compound 31] |  | ~20% | inactive
^c<1% ^d<1% | ^c<1% ^d<1% |  |  |  |  |  |  |  | inactive | O=C(O)C(=O)c1ccc(C(=O)O)c(Br)c1 [compound 32] |  | ~8% | inactive
^c<1% ^d<1% | ^c<1% ^d<1% |  |  |  |  |  |  |  | inactive | Cc1cc(C(=O)O)ccc1C(=O)C(=O)O [compound 33] |  | ~5% | inactive

Reference: publication PMC8580996, “2-Oxoglutarate derivatives can selectively enhance or inhibit the activity of human oxygenases” (Nature Communications, 2021)
